Test results published in the supplement of paper PMC10307832.

Experiments:
Test in all cases: relative viability (nuclei count vs DMSO), 5 days (fraction); higher = more cells survive
[1] = compound: CCOc1cc2ncc(C#N)c(Nc3ccc(OCc4ccccn4)c(Cl)c3)c2cc1NC(=O)/C=C/CN(C)C [Neratinib] + CCNC(=O)c1noc(-c2cc(C(C)C)c(O)cc2O)c1-c1ccc(CN2CCOCC2)cc1 [Luminespib] (partner 0.01 µM)
In short: (§1)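 Relative viability was taken as the ratio of nuclei in treated wells to nuclei in vehicle wells. Lung cancer cell lines in 1536-well plates received compounds by pin tool one day after seeding, either one drug alone or a fixed anchor-drug dose plus five library-drug doses (not always all listed) in √10 steps. Nuclei were counted on 4× images after 5 days of treatment, and values are medians of duplicate plates.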

[2] = compound: CCOc1cc2ncc(C#N)c(Nc3ccc(OCc4ccccn4)c(Cl)c3)c2cc1NC(=O)/C=C/CN(C)C [Neratinib] + CS(=O)(=O)N1CCN(Cc2cc3nc(-c4cccc5[nH]ncc45)nc(N4CCOCC4)c3s2)CC1 [Pictilisib] (partner 1 µM)
In short: as §1

[3] = compound: CCOc1cc2ncc(C#N)c(Nc3ccc(OCc4ccccn4)c(Cl)c3)c2cc1NC(=O)/C=C/CN(C)C [Neratinib] + CC(=O)c1c(C)c2cnc(Nc3ccc(N4CCNCC4)cn3)nc2n(C2CCCC2)c1=O [Palbociclib] (partner 0.5 µM)
In short: as §1

[4] = compound: CCOc1cc2ncc(C#N)c(Nc3ccc(OCc4ccccn4)c(Cl)c3)c2cc1NC(=O)/C=C/CN(C)C [Neratinib] + COc1cccc2cc(-c3nc([C@H]4CC[C@H](C(=O)O)CC4)n4ncnc(N)c34)[nH]c12 [OSI-027] (partner 0.5 µM)
In short: as §1

Cell Line	relative viability ([1]; first compound 0.01 µM)	relative viability ([1]; first compound 0.03162 µM)	relative viability ([1]; first compound 0.1 µM)	relative viability ([1]; first compound 0.3162 µM)	relative viability ([1]; first compound 1 µM)	relative viability ([2]; first compound 0.01 µM)	relative viability ([2]; first compound 0.03162 µM)	relative viability ([2]; first compound 0.1 µM)	relative viability ([2]; first compound 0.3162 µM)	relative viability ([2]; first compound 1 µM)	relative viability ([3]; first compound 0.01 µM)	relative viability ([3]; first compound 0.03162 µM)	relative viability ([3]; first compound 0.1 µM)	relative viability ([3]; first compound 1 µM)	relative viability ([4]; first compound 0.01 µM)	relative viability ([4]; first compound 0.03162 µM)	relative viability ([4]; first compound 0.1 µM)	relative viability ([4]; first compound 0.3162 µM)	relative viability ([4]; first compound 1 µM)	relative viability ([3]; first compound 0.3162 µM)
LCLC-97TM1	0.823	0.837	0.762	0.684	0.589	0.212	0.164	0.199	0.143	0.138	0.258	0.237	0.228	0.117	0.615	0.537	0.547	0.346	0.27	–
HARA	0.685	0.743	0.662	0.271	0.117	0.494	0.294	0.362	0.262	0.336	0.24	0.275	0.237	0.227	0.533	0.527	–	0.225	0.129	0.195
HCC-78	–	–	–	–	–	0.184	0.233	0.215	0.215	0.182	0.467	0.479	0.409	0.463	0.387	0.333	0.354	0.27	0.296	0.424
NCI-H1666	–	0.951	–	0.752	0.846	0.549	–	0.327	0.218	0.271	0.597	0.711	0.579	0.774	0.901	0.905	0.751	0.552	0.683	0.625
NCI-H2405	0.859	0.73	0.562	0.577	0.354	0.522	0.547	0.515	0.399	0.29	0.56	0.579	0.534	0.419	0.666	0.653	0.566	0.69	0.496	0.567
RERF-LC-KJ	1.45	1.18	1.16	1.14	0.531	0.554	0.501	0.435	0.384	0.276	1.16	1.16	1.08	0.467	0.539	–	0.477	0.434	0.326	0.84
NCI-H2085	0.4	0.455	0.353	0.3	0.294	0.526	0.436	0.462	0.408	0.373	0.468	0.456	0.467	0.382	0.736	0.882	0.647	0.398	0.266	0.419
201T	1.08	1.02	0.977	1.1	0.931	0.728	0.727	0.667	0.662	0.756	0.361	0.351	0.343	0.335	0.725	0.889	0.683	0.646	0.611	0.321
NCI-H1915	0.845	0.818	0.422	0.792	0.462	–	1.03	0.93	0.904	0.881	0.538	0.537	0.504	0.414	0.697	0.67	0.294	0.595	0.424	0.528
NCI-H2023	0.999	0.871	0.579	0.709	0.579	0.209	0.233	0.233	0.228	0.177	0.395	0.363	0.308	0.348	0.432	0.493	0.31	0.331	0.179	0.322
BEN	0.605	0.367	0.378	0.307	0.243	0.627	0.665	0.495	0.479	0.441	0.459	0.47	0.45	0.447	0.286	0.304	0.275	0.283	0.286	0.457
SK-LU-1	0.187	0.213	0.192	0.178	0.176	0.647	0.65	0.514	0.505	0.34	0.389	0.447	0.376	0.288	0.373	0.384	0.305	0.238	0.135	0.373
SK-MES-1	1.08	0.437	0.428	0.267	0.187	0.347	0.338	0.238	0.207	0.177	0.3	0.327	0.329	0.247	0.566	0.687	0.538	0.305	0.185	0.281
PC-3 [JPC-3]	0.702	0.733	0.648	0.496	0.326	0.81	0.739	0.616	0.536	0.473	0.513	0.559	0.492	0.471	0.814	0.749	0.662	0.544	0.319	0.544
NCI-H1355	0.709	0.821	0.725	0.6	0.465	0.485	0.482	0.395	0.365	0.232	0.38	0.41	0.348	0.274	0.402	0.379	0.346	0.358	0.277	0.302
NCI-H1975	0.289	0.174	0.311	0.123	0.186	0.328	0.372	0.209	0.104	0.143	0.658	0.739	0.522	0.176	0.826	0.921	0.629	0.25	0.177	0.337
